One assay has as its system neutropenia. Briefly: Efficacy dose for anti-neutropenic activity and human equivalent dose. The format is in vivo, mice. As for the experimental part: The animal efficacy dose of the cinnamic acid prepared in accordance with the present disclosure was 0.6 mg/mice or 0.6 mg/25 g or 6 mg/250 g or 24 mg/kg mice.
The human dose of the cinnamic acid prepared in accordance with the present disclosure, AED (animal equivalent dose) was divided by 12.3=24/12.3=1.95 mg/kg HED (human equivalent dose).
The animal efficacy dose of the cinnamic acid prepared in accordance with the present disclosure was 6 mg/25 g or 60 mg/250 g mice or 240 mg cinnamic acid/kg.
The human dose of the cinnamic acid prepared in accordance with the present disclosure, AED (animal equivalent dose) was divided by 12.3=240/12.3=19.51 mg/kg HED (human equivalent dose).

Assay [1] has as its system Cyclophosphamide induced hepatotoxicity and renal changes. Kind of assay: Hepatic and renal parameters in cyclophosphamide induced neutropenia (Example 10). The format is in vivo, Female Swiss Albino mice. As for the experimental part:
(§1) • 1. To induce neutropenia by administration of cyclophosphamide. • 2.
(§2) Materials: Female Swiss Albino mice weighing between 25-27 g was procured from Global Bioresearch Solutions Pvt Ltd., Pune.
(§3) On day 0, blood was withdrawn from all animals for basal hematological parameters. All the groups of animals except placebo group were injected with 150 mg/kg of cyclophosphamide through intraperitoneal route (i.p.), while group 1 was injected with water for injection, i.p. On Day 3, blood was withdrawn from all animals for Total and differential count (neutrophils, lymphocytes, and monocytes). The animals of group 2 to 7 were dosed with one additional dose of 100 mg/kg cyclophosphamide on Day 4. […] The cyclophosphamide control group was injected with water for injection from day 5 to day 9. On day 10, blood was withdrawn from all animals for total and differential count (neutrophils, lymphocytes, and monocytes), platelets, liver parameters AST (aspartate aminotransferase), ALT (alanine aminotransferase), and renal parameters—serum creatinine, blood urea nitrogen and uric acid.
(§4) • Pure Picroside 1—1 tablet was dissolved in 0.1 ml of sterile water for injection and 0.1 ml was injected as subcutaneous injection. • The degraded Picroside 1 without salt (cinnamic acid of the present disclosure)—1 tablet was dissolved in 0.1 ml of sterile water for injection and 0.1 ml was injected as subcutaneous injection. • The Cinnamic acid low dose (0.6 mg/tablet) treated tablet was dissolved in 0.1 ml of sterile water for injection and 0.1 ml was injected as subcutaneous injection. • The Cinnamic acid high dose treated (6 mg/tablet) tablet was dissolved in 0.1 ml of sterile water for injection and 0.1 ml was injected as subcutaneous injection.

The subject of assay [2] is Cyclophosphamide induced neutropenia. Kind of assay: Cyclophosphamide induced neutropenia, hematological parameters (Example 10). The format is in vivo, Female Swiss Albino mice. As for the experimental part:
as §1, §2, §3, §4

Where [3] appears, read: day 10, G-CSF 2 μg s.c., others 1 tablet per animal per day for 5 days.
Setting [4] is: Day 0, basal, G-CSF 2 μg, Picroside tablets groups.
Setting [5] is: Day 3, after cyclophosphamide, before treatment, G-CSF 2 μg, Picroside tablets groups.
Setting [6] is: Day 10, treated day 5 for 5 days, G-CSF 2 μg s.c., others 1 tablet per animal per day.

SMILES strings stand for the structures. Where a name gives a salt, the structure may show the parent alone.

For `O=C(O)C=Cc1ccccc1` [The degraded Picroside 1 without salt, cinnamic acid], the “animal efficacy dose for anti-neutropenic activity” value in the assay on neutropenia (from 0.6 mg/mice (0.6 mg/25 g)) worked out at 24 mg/kg. Moreover, the animal efficacy dose with neutropenia (from 6 mg/25 g mice) came to 240 mg cinnamic acid/kg. Besides, in assay [1] (setting [3]), the “BUN (blood urea nitrogen)” value was found to be 9.467 mmol/L, the “SGOT Serum glutamic oxaloacetic transaminase” value is 27.5 IU/L, the “SGPT (Serum glutamic pyruvic transaminase)” value stood at 30.33 IU/L and the Serum Creatinine was 41 µM. The Uric acid in assay [1] (setting [3]) worked out at 21.50 mg/L. In addition, the “Hepatic and renal parameters in neutropenic animal model” value in assay [1] (inference from table 8B, as compared to GCSF) is “improved hepatic and renal parameters”. For the same molecule, in assay [2] (setting [4]), the “% Lymphocytes” value was determined as 46.5%, the “% Monocytes” value came to 6.50%, the “% Neutrophils” value amounted to 38.83% and the “No of Platelets” value is 759400 per cu · mm of blood. Further, in assay [2] (setting [4]), the “Total WBC Count” value was 7644 per cu · mm of blood. Further, in assay [2] (setting [5]), the “% Lymphocytes” value turned out to be 83.5%, the “% Monocytes” value is 1.82%, the “% Neutrophils” value is listed as 6.667% and the “No of Platelets” value is 624000 per cu · mm of blood. Moreover, in assay [2] (setting [5]), the “Total WBC Count” value was 2253 per cu · mm of blood. Besides, in assay [2] (setting [6]), the “% Lymphocytes” value is reported as 58.83%, the “% Monocytes” value is on record as 5.50%, the “% Neutrophils” value is listed as 25.17% and the “No of Platelets” value is on record as 631900 per cu · mm of blood. In addition, in assay [2] (setting [6]), the “Total WBC Count” value is 3705 per cu · mm of blood. Besides, the “Anti-neutropenic activity (words)” value in assay [2] (inference from table 8A, listed as the degraded Picroside 1 without salt) is recorded as “shows better anti-neutropenic activity”.
